Laboratory results as given in the NIST ThermoML archive (doi:10.1021/je0342318).
± gives the expanded uncertainty stated by the source.

Key:
[1] = refractive index (Na D-line) (dimensionless); details: 298.15 K; 101.33 kPa; Liquid
[2] = Liquid; for mass density: 298.15 K, 101.33 kPa

Row | Compound | refractive index [1] | mass density ([2]; Vibrating tube method) | Normal boiling temperature [2] | mass density [2]
1 | Cc1ccc(C)cc1 [1,4-dimethylbenzene] | 1.493 ± 0.001 | 856.55 ± 0.56 kg/m3 | 138.08 ± 0.5 °C | 
2 | CCO [ethanol] | 1.3592 ± 0.0006 | 785.04 ± 0.51 kg/m3 | 78.26 ± 0.1 °C | 
3 | CC1CCCCC1 [methylcyclohexane] | 1.4204 ± 0.0006 |  | 100.81 ± 0.5 °C | 764.87 ± 0.44 kg/m3
